Reference: publication PMC10698726 (Molecular Pharmaceutics, 2023)
Like-named read-outs stand apart in the source and are kept apart here.

Key:
[1] = target: T1, OCT1 (Homo sapiens, UniProt O15245); assay: Inhibition of model substrate uptake in OCT1-overexpressing HEK293 cells; type: cell-based; design: expressed in transfected cells; host or cells: HEK293; conditions: for inhibition at 5 min, 20 μM / selectivity ratio at 5 min: OCT1-overexpressing HEK293 cells; for IC50: read-out: IC50; for selectivity ratio at 5 min: ratio of the IC50 values of both isomers, label = isomer named in the cell (as a rule the one with the higher IC50), read-out: Stereoselectivity (x-fold for the named isomer)
T1 sequence (O15245 1-554): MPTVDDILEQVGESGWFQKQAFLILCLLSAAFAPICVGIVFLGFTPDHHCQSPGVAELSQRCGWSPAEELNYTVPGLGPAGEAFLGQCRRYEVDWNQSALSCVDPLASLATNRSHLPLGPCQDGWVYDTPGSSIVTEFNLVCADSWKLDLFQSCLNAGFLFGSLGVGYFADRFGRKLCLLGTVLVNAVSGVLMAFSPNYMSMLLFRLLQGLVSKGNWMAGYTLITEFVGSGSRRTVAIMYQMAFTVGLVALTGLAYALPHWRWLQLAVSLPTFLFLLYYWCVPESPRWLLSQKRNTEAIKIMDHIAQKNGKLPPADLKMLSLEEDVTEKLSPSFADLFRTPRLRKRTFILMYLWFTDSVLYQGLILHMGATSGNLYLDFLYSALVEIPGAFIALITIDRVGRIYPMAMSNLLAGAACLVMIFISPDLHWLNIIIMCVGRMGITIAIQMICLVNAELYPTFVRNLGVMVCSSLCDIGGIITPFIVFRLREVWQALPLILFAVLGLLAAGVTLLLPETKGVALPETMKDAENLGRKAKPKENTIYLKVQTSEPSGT
Experimental: Koepsell and Gorbulev (University of Würzburg, Germany).
Fluorescence quantification was performed in technical duplicates.

[2] = target: T2, OCT2 (Homo sapiens, UniProt O15244); assay: Inhibition of model substrate uptake in OCT2-overexpressing HEK293 cells; conditions: for selectivity ratio at 5 min / inhibition at 5 min, 20 μM: OCT2-overexpressing HEK293 cells; for inhibition at 5 min, 20 μM / ASP+ inhibition [%] / N-Ethyllidocaine inhibition [%] / (S,S)-Ethambutol inhibition [%]: OCT2, 20 μM inhibitor
T2 sequence (O15244 1-555): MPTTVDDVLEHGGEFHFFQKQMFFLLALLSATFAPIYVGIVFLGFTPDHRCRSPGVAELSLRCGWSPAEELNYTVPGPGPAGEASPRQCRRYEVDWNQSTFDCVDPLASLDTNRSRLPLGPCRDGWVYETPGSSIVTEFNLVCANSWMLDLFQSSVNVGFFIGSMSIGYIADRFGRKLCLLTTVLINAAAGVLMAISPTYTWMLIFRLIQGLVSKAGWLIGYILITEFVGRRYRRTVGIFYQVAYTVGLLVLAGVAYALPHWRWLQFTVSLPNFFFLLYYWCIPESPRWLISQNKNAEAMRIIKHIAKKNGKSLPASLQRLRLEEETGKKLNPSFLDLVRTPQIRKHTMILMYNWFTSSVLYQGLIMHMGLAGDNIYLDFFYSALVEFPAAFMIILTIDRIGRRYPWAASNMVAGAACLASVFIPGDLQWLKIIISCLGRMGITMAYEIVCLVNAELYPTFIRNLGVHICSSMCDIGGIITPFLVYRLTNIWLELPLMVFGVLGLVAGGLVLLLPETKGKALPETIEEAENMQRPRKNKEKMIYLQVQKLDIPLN

[3] = target: T3, OCT3 (Homo sapiens, UniProt O75751); assay: Inhibition of model substrate uptake in OCT3-overexpressing HEK293 cells; type: cell-based
T3 construct: expressed in transfected cells; host or cells: HEK293
T3 sequence (O75751 1-556): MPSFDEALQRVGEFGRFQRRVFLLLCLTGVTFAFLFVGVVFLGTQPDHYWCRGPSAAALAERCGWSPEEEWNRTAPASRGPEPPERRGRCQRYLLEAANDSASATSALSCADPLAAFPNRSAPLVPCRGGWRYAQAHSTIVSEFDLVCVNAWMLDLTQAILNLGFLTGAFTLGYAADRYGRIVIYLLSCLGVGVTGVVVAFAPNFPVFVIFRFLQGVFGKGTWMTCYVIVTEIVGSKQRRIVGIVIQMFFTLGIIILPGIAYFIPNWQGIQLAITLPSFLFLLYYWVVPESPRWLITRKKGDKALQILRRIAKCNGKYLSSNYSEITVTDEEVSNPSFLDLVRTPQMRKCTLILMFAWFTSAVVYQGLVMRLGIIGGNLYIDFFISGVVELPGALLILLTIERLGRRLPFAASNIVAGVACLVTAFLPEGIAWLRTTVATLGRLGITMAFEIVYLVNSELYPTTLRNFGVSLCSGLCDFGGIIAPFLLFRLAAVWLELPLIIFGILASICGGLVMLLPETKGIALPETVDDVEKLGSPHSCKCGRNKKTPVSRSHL
How it was run: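 Transporter-overexpressing HEK293 cells were incubated 5 min in HBSS+ with 2 μM model substrate, with or without 20 μM inhibitor or increasing inhibitor concentrations. Uptake was read as ASP^+ fluorescence or by LC–MS/MS, with empty-vector uptake subtracted. IC50 came from a Hill fit of activity versus log concentration.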

[4] = human, pH 7.4, probe (S,S)-ethambutol (2 μM), (S,S)-Ethambutol inhibition [%], OCT1, 20 μM inhibitor, 2 μM (S,S)-ethambutol, 5 min
[5] = human, pH 7.4, probe ASP+ (2 μM), OCT1, 20 μM inhibitor, 2 μM ASP+, 5 min, mean of three experiments, read-out: ASP+ inhibition [%]
[6] = human, pH 7.4, probe sumatriptan (2 μM), OCT1, 20 μM inhibitor, 2 μM sumatriptan, 5 min, read-out: Sumatriptan inhibition [%]
[7] = IC50, OCT2, Table S5, 2 μM ASP+ as model substrate, 5 min
[8] = human, pH 7.4, probe (S,S)-ethambutol (2 μM), (S,S)-Ethambutol inhibition [%], 2 μM (S,S)-ethambutol, 5 min
[9] = human, pH 7.4, probe ASP+ (2 μM), ASP+ inhibition [%], 2 μM ASP+, 5 min
[10] = human, pH 7.4, probe N-ethyllidocaine (2 μM), N-Ethyllidocaine inhibition [%], 2 μM N-ethyllidocaine, 5 min
[11] = HEK293, 5 min, read-out: (S)-Zolmitriptan inhibition [%], OCT3, 20 μM inhibitor, 2 μM (S)-zolmitriptan, 5 min
[12] = HEK293, 5 min, read-out: (S,S)-Ethambutol inhibition [%], OCT3, 20 μM inhibitor, 2 μM (S,S)-ethambutol, 5 min
[13] = HEK293, OCT3, 20 μM inhibitor, 2 μM ASP+, 5 min, read-out: ASP+ inhibition [%]
[14] = HEK293, 5 min, read-out: (S)-Zolmitriptan inhibition [%]
[15] = HEK293, 5 min, read-out: (S,S)-Ethambutol inhibition [%]
[16] = OCT3, 20 μM inhibitor, 2 μM (S)-zolmitriptan, 5 min
[17] = OCT3, 20 μM inhibitor, 2 μM ASP+, 5 min
[18] = OCT1, 20 μM inhibitor, 2 μM ASP+, 5 min, mean of three experiments
[19] = OCT1, 20 μM inhibitor, 2 μM sumatriptan, 5 min
[20] = OCT1, 20 μM inhibitor, 2 μM (S,S)-ethambutol, 5 min
[21] = OCT3, 20 μM inhibitor, 2 μM (S,S)-ethambutol, 5 min

| Structure (SMILES) | inhibition at 5 min, 20 μM [1, 4] [%] | inhibition at 5 min, 20 μM [1, 5] [%] | inhibition at 5 min, 20 μM [1, 6] [%] | inhibition at 5 min, 20 μM [2, 8] [%] | inhibition at 5 min, 20 μM [2, 9] [%] | inhibition at 5 min, 20 μM [2, 10] [%] | inhibition at 20 µM [3, 13] [%] | ASP+ inhibition [%] ([2]; 2 μM ASP+, 5 min) | N-Ethyllidocaine inhibition [%] ([2]; 2 μM N-ethyllidocaine, 5 min) | (S)-Zolmitriptan inhibition [%] [3, 16] [%] | ASP+ inhibition [%] [3, 17] [%] | ASP+ inhibition [%] [1, 18] [%] | Sumatriptan inhibition [%] [1, 19] [%] | (S,S)-Ethambutol inhibition [%] [1, 20] [%] | (S,S)-Ethambutol inhibition [%] ([2]; 2 μM (S,S)-ethambutol, 5 min) | (S,S)-Ethambutol inhibition [%] [3, 21] [%] | other results |
| --- | --- | --- | --- | --- | --- | --- | --- | --- | --- | --- | --- | --- | --- | --- | --- | --- | --- |
| CC(C)(C)NC[C@@H](O)COc1nsnc1N1CCOCC1 [(R)-Timolol] | 32.1 | 12.9 | 55 | 12 | 37.2 | 24.7 | 28.6 | – | – | – | – | – | – | – | – | – | IC50 [2, 7]: 121 µM; selectivity ratio at 5 min ([2]; human, pH 7.4): 2; inhibition at 20 µM [3, 11]: 7.6%; inhibition at 20 µM [3, 12]: 8.2% |
| COc1ccc([C@H](CN(C)C)C2(O)CCCCC2)cc1 [(R)-Venlafaxine] | – | – | – | – | – | – | -2.8 | 29.1 | 23.1 | – | – | – | – | – | – | – | Sumatriptan inhibition [%] ([1]; human, pH 7.4): 70.8%; inhibition at 20 µM [3, 14]: 12.6%; inhibition at 20 µM [3, 15]: 12.3% |
| CCC(CO)NCCNC(CC)CO [(R,R)-Ethambutol] | – | 7.7 | 17.9 | – | 34.4 | 7.7 | – | – | – | -3.7 | 9.1 | – | – | – | – | – | – |
| CCC(CO)NCCNC(CC)CO [(R,S)-Ethambutol] | – | – | – | – | – | – | – | 26.0 | 6.8 | -8.0 | 2.6 | 4.0 | 10.2 | – | – | – | – |
| O=C(OC1C[N+]2(CCCOc3ccccc3)CCC1CC2)C(O)(c1cccs1)c1cccs1 [(S)-Aclidinium] | – | – | – | – | – | – | – | 101.8 | 57.3 | 53.3 | 37.7 | 78.8 | 93.8 | 101.4 | 2.7 | 67.7 | – |
| CCCCN1CCCC[C@H]1C(=O)Nc1c(C)cccc1C [(S)-Bupivacaine] | 50.6 | 23.5 | 43.9 | 38.5 | 43.1 | 50.2 | 24.3 | – | – | – | – | – | – | – | – | – | IC50 ([1]; OCT1, Table 1): 18.7 µM; selectivity ratio at 5 min ([1]; human, pH 7.4, OCT1, Table S5): 1.8; IC50 ([2]; IC50 [μM], OCT2, Table 1): 48.4 µM; selectivity ratio at 5 min ([2]; human, pH 7.4): 2.3; inhibition at 20 µM [3, 11]: 37.2%; inhibition at 20 µM [3, 12]: 33.4% |
| COc1ccccc1OCCNC[C@H](O)COc1cccc2[nH]c3ccccc3c12 [(S)-Carvedilol] | 100 | 74.5 | 96.5 | 8.7 | 94.9 | 48.8 | 16.3 | – | – | – | – | – | – | – | – | – | inhibition at 20 µM [3, 11]: 32.8%; inhibition at 20 µM [3, 12]: 49.5% |
| N[C@H]1CONC1=O [(S)-Cycloserine] | – | – | – | – | – | – | – | 14.6 | 14.6 | 6.3 | 19.3 | -2.6 | 35.9 | 0.3 | 0.8 | 12.2 | – |
| C#CCN(C)[C@@H](C)Cc1ccccc1 [(S)-Deprenyl] | – | – | – | – | – | – | – | 88.0 | 47.7 | – | 9.6 | 26.1 | – | – | – | – | Sumatriptan inhibition [%] ([1]; human, pH 7.4): 68.6%; IC50 [2, 7]: 3.4 µM; selectivity ratio ([2]; human, pH 7.4): 1.4; (S)-Zolmitriptan inhibition [%] [3]: 11.5%; (S,S)-Ethambutol inhibition [%] [3]: 20.9% |
| CN(C)CCO[C@@](C)(c1ccccc1)c1ccccn1 [(S)-Doxylamine] | – | – | – | – | – | – | – | 64.3 | -17.1 | 33.8 | 7.4 | 51.7 | 88.2 | 86.5 | 26.3 | 35.8 | IC50 ([1]; OCT1, Table S5, 2 μM ASP+ or ethambutol as model substrate, 5 min): 32.2 µM; selectivity ratio at 5 min ([1]; human, pH 7.4, OCT1, Table S5): 1.4 |
| OC[C@@H](O)CN1CCN(c2ccccc2)CC1 [(S)-Dropropizine] | – | – | – | – | – | – | – | 51.1 | 7.5 | -17.1 | 29.1 | 24.6 | 30.4 | 27.4 | 20.5 | 6.7 | IC50 [2, 7]: 55.6 µM |
| CNCC[C@H](Oc1cccc2ccccc12)c1cccs1 [(S)-Duloxetine] | 86.9 | 43.3 | 88.5 | 19.4 | 70.2 | 46.1 | – | – | – | – | – | – | – | – | – | – | IC50 ([2]; IC50): 16.6 µM; inhibition at 20 µM [3, 14]: 19.6%; inhibition at 20 µM [3, 15]: 25.2%; inhibition at 20 µM ([3]; HEK293, read-out: ASP+ inhibition [%]): 2.4% |
| CNCC[C@H](Oc1ccc(C(F)(F)F)cc1)c1ccccc1 [(S)-Fluoxetine] | – | – | – | – | – | – | – | 56.6 | 28.7 | – | – | 47.7 | 82.3 | 78.6 | 6.4 | – | (S)-Zolmitriptan inhibition [%] [3]: 13.8; (S,S)-Ethambutol inhibition [%] [3]: 12.3; ASP+ inhibition [%] [3]: -3.1 |
